These results are taken from US10047092B2 (Janssen Pharmaceutica NV, priority 2013, dated 2018).

The structures appear in SMILES notation.

In the assay the target is P2X7 (Homo sapiens (Human), UniProt Q99572). Put plainly: P2X7 antagonism in human PBMCs (IL-1β release, LPS + Bz-ATP). Conditions: LPS 30 ng/ml + 0.5 mM Bz-ATP; for remaining activity at 10 µM: P2X7, 10 μM test compound, read-out: PBMC 10 μM (% control); for PBMC 10 μM (% control): 10 μM test compound. It counts as cell-based. On the procedure: P2X7 Antagonism in Human Peripheral Blood Mononuclear Cells (PBMCs) and Mouse/Human Whole Blood.
Human blood was collected using a blood donor program. PBMCs were isolated from blood using a Ficoll density gradient technique. Briefly, blood was laid on Ficoll solution and centrifuged at RT for 20 minutes at 2000 rpm. The buffy layer (between red blood cells and plasma) was carefully collected by aspiration, washed with PBS and centrifuged again at 1500 rpm for 15 minutes. The resulting cell pellet was washed and plated on 96 well-plates for experiments. For the Mouse/Human Whole Blood experiments, 150 μl of either mouse or human blood was platted on 96 well-plates. Lipopolysaccharide (LPS) (30 ng/ml) was added to each well and incubated for 1 hour. Test compounds were then added and incubated for 30 minutes. The P2X7 agonist, 2′(3′)-O-(4-benzoylbenzoyl) adenosine 5′-triphosphate (Bz-ATP) was then added at a final concentration of 0.5 mM (PBMC) or 1 mM (blood). Cells were incubated for an additional 1.5 hours. At that point, supernatant was collected and stored for IL-1β assay using manufacturer's protocol for enzyme-linked immunosorbent assay (ELISA). Data was expressed as percent control, where control is defined as the difference in IL-113 release in LPS+Bz-ATP samples and LPS only samples. Data was plotted as response (% control) versus concentration to generate IC50 values. […] In Table 2, when the data cell has been left blank, it is intended to mean that the compound was not tested in that assay.

Sequence of P2X7 (Q99572 whole entry): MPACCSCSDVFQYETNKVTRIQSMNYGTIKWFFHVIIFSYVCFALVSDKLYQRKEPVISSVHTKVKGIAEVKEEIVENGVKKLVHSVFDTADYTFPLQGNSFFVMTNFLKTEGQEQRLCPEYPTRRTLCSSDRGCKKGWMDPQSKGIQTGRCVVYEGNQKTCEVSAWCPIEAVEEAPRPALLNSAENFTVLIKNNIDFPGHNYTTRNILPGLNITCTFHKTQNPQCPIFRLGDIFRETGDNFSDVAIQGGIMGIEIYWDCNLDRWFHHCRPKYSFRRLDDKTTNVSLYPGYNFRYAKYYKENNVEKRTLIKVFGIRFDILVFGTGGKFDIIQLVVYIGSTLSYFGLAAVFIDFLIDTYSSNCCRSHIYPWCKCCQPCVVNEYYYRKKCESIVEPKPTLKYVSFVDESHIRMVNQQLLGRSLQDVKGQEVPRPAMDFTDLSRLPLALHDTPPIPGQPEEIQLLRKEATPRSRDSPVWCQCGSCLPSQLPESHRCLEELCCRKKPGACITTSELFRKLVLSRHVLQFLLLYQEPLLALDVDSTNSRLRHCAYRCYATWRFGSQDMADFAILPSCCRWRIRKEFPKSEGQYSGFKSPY

`O=C1c2nnc(-c3ncccn3)n2C[C@@H](C2CC2)N1Cc1cccc(C(F)(F)F)c1Cl` (single isomer, unassigned) [Example 65, (6R*)-7-[2-Chloro-3-(trifluoromethyl)benzyl]-6-cyclopropyl-3-pyrimidin-2-yl-6,7-dihydro[1,2,4]triazolo[4,3-a]pyrazin-8(5H)-one]: the remaining activity at 10 µM is 15.9%.

Consider `CC[C@H]1Cn2c(nnc2-c2cnccn2)C(=O)N1Cc1cccc(C(F)(F)F)c1Cl` [Example 71, (6S)-7-[2-Chloro-3-(trifluoromethyl)benzyl]-6-ethyl-3-pyrazin-2-yl-6,7-dihydro[1,2,4]triazolo[4,3-a]pyrazin-8(5H)-one], for which the “PBMC 10 μM (% control)” value came out at 1.2 % control. Consider `O=C1c2nnc(-c3ncccn3)n2C[C@H](C2CC2)N1Cc1cccc(C(F)(F)F)c1Cl` (single isomer, unassigned) [Example 66, (6S*)-7-[2-Chloro-3-(trifluoromethyl)benzyl]-6-cyclopropyl-3-pyrimidin-2-yl-6,7-dihydro[1,2,4]triazolo[4,3-a]pyrazin-8(5H)-one], for which the remaining activity at 10 µM is 20.7%.

Take `CC(c1cccc(C(F)(F)F)c1Cl)N1C(=O)c2nnc(-c3cnccn3)n2C[C@@H]1C` (stereo partly drawn) [Example 93]: the “PBMC 10 μM (% control)” value came out at 4.5 % control.

Take `C[C@H]1Cn2c(nnc2-c2cnccn2)C(=O)N1Cc1cccc(C(F)(F)F)c1Cl` [Example 16, (6S)-7-[2-Chloro-3-(trifluoromethyl)benzyl]-6-methyl-3-pyrazin-2-yl-6,7-dihydro[1,2,4]triazolo[4,3-a]pyrazin-8(5H)-one]: the “PBMC 10 μM (% control)” value is 13.4 % control. Take `C[C@H]1Cn2c(nnc2-c2cnccn2)C(=O)N1Cc1cccc(Cl)c1Cl` [Example 13, (6S)-7-(2,3-Dichlorobenzyl)-6-methyl-3-pyrazin-2-yl-6,7-dihydro[1,2,4]triazolo[4,3-a]pyrazin-8(5H)-one]: the “PBMC 10 μM (% control)” value came out at 15.4 % control.
